# Results as given in ChEMBL document CHEMBL1201862, “PubChem BioAssay data set” (2004).
# The source made the active and inactive calls.
# What was measured:
# [1] = target: T1, DNA repair protein RAD52 homolog (Homo sapiens, UniProt P43351); format: functional, biochemical
# T1 sequence (P43351 whole entry): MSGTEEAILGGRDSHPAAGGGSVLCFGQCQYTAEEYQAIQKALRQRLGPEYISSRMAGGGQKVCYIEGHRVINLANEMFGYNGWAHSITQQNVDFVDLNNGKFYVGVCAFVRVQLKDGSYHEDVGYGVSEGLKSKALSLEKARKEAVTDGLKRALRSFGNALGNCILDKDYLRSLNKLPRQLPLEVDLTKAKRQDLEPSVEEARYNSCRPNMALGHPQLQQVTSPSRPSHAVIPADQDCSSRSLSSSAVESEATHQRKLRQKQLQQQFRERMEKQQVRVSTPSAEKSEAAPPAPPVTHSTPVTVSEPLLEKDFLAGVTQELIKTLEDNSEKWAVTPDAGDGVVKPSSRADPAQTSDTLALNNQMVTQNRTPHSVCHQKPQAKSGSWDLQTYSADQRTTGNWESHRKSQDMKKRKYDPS
# [2] = target: DNA repair and recombination protein RAD54-like (Homo sapiens, UniProt Q92698); test: inhibitors of human RAD54 branch migration, confirmation, biochemical, fluorescence, cherry-picked samples, dose series (AID 651657); format: functional
# [3] = target: Dual specificity protein phosphatase 3 (Homo sapiens, UniProt P51452); test: VHR phosphatase inhibition, dose response, selectivity assay for STEP inhibitor project, biochemical (AID 602374); format: functional; conditions: read-out: IC50_Mean
# [4] = target: Tyrosine-protein phosphatase non-receptor type 22 (Homo sapiens, UniProt Q9Y2R2); test: PTPN22 phosphatase inhibition, dose response, selectivity assay for STEP inhibitor project, biochemical (AID 624241); format: functional
# [5] = target: T2, Tyrosine-protein phosphatase non-receptor type 5 (Homo sapiens, UniProt P54829); test: STEP phosphatase inhibitors, confirmation, biochemical, fluorescence intensity, uHTS hits (AID 602372); format: functional; conditions: read-out: IC50_Mean
# T2 sequence (P54829 whole entry): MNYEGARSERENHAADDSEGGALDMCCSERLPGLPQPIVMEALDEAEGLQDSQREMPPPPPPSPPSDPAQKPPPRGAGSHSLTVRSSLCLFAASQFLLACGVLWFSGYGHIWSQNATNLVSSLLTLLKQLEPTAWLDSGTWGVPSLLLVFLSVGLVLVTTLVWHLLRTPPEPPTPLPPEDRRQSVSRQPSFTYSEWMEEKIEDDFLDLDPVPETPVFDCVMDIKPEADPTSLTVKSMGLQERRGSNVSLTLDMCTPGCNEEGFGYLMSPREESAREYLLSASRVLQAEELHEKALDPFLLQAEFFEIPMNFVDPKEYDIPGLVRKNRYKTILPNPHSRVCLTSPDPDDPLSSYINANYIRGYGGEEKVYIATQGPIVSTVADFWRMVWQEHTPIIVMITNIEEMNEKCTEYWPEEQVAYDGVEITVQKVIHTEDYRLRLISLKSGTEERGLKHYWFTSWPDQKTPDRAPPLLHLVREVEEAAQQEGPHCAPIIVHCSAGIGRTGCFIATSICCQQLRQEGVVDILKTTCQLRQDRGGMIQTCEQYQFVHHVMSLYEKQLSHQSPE
# [6] = target: T3, Tyrosine-protein phosphatase non-receptor type 11 (Homo sapiens, UniProt Q06124); test: SHP2 phosphatase inhibition, dose response, selectivity assay for STEP inhibitor project, biochemical (AID 602367); format: functional; conditions: read-out: IC50_Mean
# T3 sequence (Q06124 whole entry): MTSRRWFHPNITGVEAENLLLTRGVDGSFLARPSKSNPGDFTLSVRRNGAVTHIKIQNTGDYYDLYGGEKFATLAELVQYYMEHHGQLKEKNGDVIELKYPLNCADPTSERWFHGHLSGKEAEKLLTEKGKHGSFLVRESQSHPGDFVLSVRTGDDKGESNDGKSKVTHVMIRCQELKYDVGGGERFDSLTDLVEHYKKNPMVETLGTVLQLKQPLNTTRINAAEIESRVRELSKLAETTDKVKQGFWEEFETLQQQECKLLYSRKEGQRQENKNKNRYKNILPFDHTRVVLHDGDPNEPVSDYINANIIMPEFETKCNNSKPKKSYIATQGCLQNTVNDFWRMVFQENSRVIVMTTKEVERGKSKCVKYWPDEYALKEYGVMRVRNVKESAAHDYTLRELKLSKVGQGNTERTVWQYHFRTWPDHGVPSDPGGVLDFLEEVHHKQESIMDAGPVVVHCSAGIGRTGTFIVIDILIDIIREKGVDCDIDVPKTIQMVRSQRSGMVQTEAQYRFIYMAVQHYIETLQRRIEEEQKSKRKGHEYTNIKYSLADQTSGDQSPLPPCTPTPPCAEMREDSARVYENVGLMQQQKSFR
# [7] = target: 72 kDa type IV collagenase (Homo sapiens, UniProt P08253); test: Dose Response validation of uHTS RPN11 inhibitor hits using a MMP-2 Fluorescence assay.; format: functional
# Prothrombin = Prothrombin (Bos taurus, UniProt P00735); test: thrombin inhibition, dose response, biochemical, fluorescence polarization, uHTS hits (AID 602369); format: functional
# [8] = target: 26S proteasome non-ATPase regulatory subunit 14 (Homo sapiens, UniProt O00487); test: inhibition of proteasome subunit RPN11 – biochemical, fluorescence polarization, uHTS hits, confirmation (AID 602368); format: functional
# [9] = target: T4, Corticotropin-releasing factor receptor 2/Corticotropin-releasing factor-binding protein (Homo sapiens, UniProt P24387+Q13324); test: activators of CRF receptor 2 with binding protein – uHTS hits, confirmation (AID 602473); format: functional; conditions: read-out: EC50_Mean
# T4 sequence (Q13324 whole entry): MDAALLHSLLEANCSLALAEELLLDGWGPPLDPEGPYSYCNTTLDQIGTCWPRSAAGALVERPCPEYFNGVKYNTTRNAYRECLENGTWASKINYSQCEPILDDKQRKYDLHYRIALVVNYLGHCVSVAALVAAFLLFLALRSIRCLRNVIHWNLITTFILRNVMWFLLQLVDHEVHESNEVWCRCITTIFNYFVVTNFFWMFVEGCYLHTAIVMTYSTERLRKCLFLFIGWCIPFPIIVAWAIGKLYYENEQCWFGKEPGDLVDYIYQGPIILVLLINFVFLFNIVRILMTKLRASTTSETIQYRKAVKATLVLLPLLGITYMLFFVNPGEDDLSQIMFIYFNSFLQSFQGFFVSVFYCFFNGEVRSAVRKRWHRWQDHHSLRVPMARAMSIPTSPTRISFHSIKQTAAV
# T4 sequence (P24387 whole entry): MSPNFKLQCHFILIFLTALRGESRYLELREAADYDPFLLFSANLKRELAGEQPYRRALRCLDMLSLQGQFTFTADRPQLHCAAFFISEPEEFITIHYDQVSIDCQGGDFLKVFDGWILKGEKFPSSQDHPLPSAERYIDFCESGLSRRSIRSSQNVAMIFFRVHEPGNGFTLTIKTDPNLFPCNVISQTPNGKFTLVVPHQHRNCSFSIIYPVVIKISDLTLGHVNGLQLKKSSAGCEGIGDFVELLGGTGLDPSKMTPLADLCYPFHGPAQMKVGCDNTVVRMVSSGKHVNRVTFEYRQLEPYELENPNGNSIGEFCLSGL
# Vero = test: cells; format: functional; conditions: Chlorocebus sabaeus
# [10] = target: T5, Sentrin-specific protease 8 (Homo sapiens, UniProt Q96LD8); format: functional
# T5 sequence (Q96LD8 whole entry): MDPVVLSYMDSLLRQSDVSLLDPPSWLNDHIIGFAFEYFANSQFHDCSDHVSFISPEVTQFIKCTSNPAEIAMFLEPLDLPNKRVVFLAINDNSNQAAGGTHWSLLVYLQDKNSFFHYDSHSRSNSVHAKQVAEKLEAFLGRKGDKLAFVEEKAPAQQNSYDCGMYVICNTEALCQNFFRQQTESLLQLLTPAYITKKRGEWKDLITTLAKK
# Caspase-3 = target: T6, Caspase-3 (Homo sapiens, UniProt P42574); test: Dose-response confirmation of uHTS inhibitor hits of Sentrin-Specific Protease 8 in a Caspase-3 Fluorescence assay.; format: functional
# T6 sequence (P42574 whole entry): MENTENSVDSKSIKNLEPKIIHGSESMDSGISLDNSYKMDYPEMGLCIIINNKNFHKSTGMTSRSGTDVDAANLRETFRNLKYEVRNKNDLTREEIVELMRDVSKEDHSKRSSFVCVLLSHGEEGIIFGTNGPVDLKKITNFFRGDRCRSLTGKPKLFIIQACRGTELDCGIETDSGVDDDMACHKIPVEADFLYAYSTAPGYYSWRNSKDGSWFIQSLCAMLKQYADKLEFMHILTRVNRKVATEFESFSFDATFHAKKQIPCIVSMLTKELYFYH
# [11] = target: T5, Sentrin-specific protease 8; format: functional; remark: listed apart in the source
# [12] = target: T7, Short transient receptor potential channel 4 (Mus musculus, UniProt Q9QUQ5); test: mouse TRPC4 channel activators, dose response, cell-based, HEK293 TRPC4/mu-opioid, Fluo-4 calcium (AID 434937); format: functional
# T7 sequence (Q9QUQ5 whole entry): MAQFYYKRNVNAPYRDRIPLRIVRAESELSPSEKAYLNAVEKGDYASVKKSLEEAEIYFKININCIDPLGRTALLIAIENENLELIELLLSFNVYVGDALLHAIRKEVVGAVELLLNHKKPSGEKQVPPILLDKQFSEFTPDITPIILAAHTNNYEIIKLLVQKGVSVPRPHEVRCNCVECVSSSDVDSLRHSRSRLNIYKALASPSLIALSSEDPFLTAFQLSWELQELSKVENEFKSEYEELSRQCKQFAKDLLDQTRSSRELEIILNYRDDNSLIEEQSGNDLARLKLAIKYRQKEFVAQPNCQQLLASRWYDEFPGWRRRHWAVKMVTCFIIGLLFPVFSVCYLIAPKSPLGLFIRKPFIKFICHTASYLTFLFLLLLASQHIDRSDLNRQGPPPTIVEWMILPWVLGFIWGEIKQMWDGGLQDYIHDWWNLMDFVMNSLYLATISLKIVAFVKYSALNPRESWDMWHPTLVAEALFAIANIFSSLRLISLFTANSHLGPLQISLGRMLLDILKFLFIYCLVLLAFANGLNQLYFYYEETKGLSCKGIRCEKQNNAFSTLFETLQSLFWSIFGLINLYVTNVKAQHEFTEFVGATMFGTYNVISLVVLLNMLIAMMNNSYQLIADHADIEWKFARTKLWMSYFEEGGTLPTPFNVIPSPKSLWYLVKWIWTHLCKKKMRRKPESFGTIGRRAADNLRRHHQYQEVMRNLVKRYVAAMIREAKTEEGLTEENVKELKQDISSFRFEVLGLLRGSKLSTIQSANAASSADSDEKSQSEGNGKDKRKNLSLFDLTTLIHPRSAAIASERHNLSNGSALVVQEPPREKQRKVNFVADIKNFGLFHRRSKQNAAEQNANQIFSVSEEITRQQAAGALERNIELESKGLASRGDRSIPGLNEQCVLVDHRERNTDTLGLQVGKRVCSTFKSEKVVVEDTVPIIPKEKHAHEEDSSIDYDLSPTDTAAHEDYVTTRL
# [13] = target: 5-hydroxytryptamine receptor 5A (Homo sapiens, UniProt P47898); test: Counterscreen for agonists of OPRM1-OPRD1 heterodimerization: luminescence-based cell-based high throughput dose response assay to identify agonists of 5-hydroxytryptamine (serotonin) 5A receptor (HTR5A). [Related pubchem assays (depositor defined):AID504326, AID504355, AID504692, AID504904, AID504905]; format: functional
# [14] = target: Delta-type opioid receptor (Homo sapiens, UniProt P41143); test: Counterscreen for agonists of heterodimerization of the mu 1 (OPRM1) and delta 1 (OPRD1) opioid receptors: Luminescence-based cell-based high throughput dose response assay to identify agonists of OPRD1 homodimerization. [Related pubchem assays (depositor defined):AID504326, AID504355, AID504692, AID504904, AID504905]; format: functional
# Mu-type opioid receptor = Mu-type opioid receptor (Homo sapiens, UniProt P35372); test: Counterscreen for agonists of heterodimerization of the mu 1 (OPRM1) and delta 1 (OPRD1) opioid receptors: Luminescence-based cell-based high throughput dose response assay to identify agonists of OPRM1 homodimerization.; format: functional;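 note: U2OS cells expressing OPRM1 and beta-arrestin as split beta-galactosidase partners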
# Mu-type opioid receptor, sequence (P35372 whole entry): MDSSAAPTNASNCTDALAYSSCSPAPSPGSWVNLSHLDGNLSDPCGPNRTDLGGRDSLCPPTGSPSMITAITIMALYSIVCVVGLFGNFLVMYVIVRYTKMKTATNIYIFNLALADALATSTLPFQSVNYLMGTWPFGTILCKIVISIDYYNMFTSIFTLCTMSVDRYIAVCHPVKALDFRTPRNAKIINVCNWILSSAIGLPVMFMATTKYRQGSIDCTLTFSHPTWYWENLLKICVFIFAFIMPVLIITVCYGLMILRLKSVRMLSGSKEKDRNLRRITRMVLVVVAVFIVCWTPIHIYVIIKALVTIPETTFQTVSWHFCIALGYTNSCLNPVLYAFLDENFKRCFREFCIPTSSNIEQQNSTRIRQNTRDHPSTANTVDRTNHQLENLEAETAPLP
# 72 kDa type IV collagenase, sequence (P08253 whole entry): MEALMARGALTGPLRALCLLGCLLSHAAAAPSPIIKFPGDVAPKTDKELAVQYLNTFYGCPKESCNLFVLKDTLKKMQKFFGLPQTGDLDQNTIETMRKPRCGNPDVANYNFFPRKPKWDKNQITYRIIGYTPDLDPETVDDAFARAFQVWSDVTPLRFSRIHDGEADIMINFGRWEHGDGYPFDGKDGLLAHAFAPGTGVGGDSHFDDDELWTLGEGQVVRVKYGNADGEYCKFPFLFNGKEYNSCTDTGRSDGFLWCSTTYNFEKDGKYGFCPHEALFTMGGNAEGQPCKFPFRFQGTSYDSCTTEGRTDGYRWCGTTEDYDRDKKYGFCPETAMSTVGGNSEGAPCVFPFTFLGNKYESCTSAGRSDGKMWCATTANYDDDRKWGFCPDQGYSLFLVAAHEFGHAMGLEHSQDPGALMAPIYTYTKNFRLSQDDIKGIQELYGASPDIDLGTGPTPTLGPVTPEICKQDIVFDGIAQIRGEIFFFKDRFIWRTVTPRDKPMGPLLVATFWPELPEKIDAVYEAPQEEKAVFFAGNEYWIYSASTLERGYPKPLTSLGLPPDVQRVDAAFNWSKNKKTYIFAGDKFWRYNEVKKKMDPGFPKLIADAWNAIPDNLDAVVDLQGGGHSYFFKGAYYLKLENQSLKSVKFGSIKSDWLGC
# DNA repair and recombination protein RAD54-like, sequence (Q92698 whole entry): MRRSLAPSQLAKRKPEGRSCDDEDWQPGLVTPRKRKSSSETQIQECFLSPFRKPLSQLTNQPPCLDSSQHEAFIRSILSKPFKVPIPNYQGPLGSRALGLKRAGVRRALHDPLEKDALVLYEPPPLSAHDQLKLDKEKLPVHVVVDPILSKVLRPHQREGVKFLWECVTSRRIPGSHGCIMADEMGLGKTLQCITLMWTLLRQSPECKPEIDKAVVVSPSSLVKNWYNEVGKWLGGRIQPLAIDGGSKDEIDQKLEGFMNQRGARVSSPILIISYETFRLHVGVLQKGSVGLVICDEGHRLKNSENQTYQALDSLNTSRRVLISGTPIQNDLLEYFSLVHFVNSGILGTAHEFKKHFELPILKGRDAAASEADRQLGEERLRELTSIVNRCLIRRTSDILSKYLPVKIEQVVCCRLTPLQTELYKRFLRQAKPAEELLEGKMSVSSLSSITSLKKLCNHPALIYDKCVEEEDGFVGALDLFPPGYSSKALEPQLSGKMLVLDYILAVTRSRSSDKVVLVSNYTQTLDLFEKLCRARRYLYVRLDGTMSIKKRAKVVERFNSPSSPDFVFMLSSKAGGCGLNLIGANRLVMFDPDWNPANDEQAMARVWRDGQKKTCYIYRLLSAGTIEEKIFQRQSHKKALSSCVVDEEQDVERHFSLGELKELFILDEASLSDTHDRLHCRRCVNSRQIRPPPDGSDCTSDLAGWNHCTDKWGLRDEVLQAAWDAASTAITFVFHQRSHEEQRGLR
# 26S proteasome non-ATPase regulatory subunit 14, sequence (O00487 whole entry): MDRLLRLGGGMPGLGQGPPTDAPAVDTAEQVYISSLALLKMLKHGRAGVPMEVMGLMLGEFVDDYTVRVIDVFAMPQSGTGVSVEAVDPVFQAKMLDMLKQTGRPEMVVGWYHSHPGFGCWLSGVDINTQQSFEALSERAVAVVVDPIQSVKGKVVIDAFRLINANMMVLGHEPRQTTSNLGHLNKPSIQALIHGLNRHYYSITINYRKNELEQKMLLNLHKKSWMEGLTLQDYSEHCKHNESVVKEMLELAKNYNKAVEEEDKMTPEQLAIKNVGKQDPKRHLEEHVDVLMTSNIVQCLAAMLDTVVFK
# Dual specificity protein phosphatase 3, sequence (P51452 whole entry): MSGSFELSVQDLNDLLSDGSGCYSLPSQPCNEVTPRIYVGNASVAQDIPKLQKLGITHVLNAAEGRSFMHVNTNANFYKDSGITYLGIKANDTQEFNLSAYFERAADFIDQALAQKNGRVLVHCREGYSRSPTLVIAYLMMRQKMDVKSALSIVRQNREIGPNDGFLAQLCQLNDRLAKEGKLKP
# 5-hydroxytryptamine receptor 5A, sequence (P47898 whole entry): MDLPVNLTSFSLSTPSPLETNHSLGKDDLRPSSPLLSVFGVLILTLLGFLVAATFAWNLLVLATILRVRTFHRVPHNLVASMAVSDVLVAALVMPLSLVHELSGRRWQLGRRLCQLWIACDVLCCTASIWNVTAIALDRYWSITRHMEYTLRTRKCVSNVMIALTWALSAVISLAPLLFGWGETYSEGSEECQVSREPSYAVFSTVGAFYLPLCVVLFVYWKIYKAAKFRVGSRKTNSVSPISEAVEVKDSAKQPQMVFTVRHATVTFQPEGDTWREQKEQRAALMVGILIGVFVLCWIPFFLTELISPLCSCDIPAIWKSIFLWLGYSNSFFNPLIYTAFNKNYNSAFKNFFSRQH
# Tyrosine-protein phosphatase non-receptor type 22, sequence (Q9Y2R2 whole entry): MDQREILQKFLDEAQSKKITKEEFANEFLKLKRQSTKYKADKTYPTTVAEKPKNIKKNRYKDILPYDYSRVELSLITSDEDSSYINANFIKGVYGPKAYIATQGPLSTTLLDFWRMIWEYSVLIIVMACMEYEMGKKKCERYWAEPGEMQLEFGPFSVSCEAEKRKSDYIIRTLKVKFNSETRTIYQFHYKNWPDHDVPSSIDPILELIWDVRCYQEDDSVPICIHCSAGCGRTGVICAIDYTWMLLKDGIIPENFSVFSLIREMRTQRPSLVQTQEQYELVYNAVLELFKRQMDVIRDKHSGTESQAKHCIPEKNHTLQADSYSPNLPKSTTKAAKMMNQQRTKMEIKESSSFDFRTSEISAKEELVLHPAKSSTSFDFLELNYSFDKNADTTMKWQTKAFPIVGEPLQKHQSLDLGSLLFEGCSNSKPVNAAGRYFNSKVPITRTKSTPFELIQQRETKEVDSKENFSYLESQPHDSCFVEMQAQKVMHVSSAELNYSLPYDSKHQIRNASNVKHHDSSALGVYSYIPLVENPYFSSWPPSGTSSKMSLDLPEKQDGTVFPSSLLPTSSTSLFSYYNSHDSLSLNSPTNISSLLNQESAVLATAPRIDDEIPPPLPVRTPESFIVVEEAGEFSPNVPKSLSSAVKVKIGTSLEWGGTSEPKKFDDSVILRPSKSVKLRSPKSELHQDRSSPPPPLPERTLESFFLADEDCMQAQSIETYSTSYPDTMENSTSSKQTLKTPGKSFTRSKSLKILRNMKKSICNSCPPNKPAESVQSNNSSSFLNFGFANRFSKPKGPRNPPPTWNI
# Delta-type opioid receptor, sequence (P41143 whole entry): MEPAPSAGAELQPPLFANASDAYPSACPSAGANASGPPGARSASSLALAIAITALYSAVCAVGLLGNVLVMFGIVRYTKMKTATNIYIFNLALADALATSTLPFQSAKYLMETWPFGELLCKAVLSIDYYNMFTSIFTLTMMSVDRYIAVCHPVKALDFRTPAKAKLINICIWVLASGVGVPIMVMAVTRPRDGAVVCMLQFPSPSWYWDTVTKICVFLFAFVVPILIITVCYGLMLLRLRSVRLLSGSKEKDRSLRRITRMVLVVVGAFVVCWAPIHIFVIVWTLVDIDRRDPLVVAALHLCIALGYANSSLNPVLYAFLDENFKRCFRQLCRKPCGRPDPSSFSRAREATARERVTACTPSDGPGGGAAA
smiles,measurement,setting,value
N=c1n(CCN2CCCCC2)c2ccccc2n1CC(=O)c1cccc([N+](=O)[O-])c1,AC50,[1],9.9 µM (active)
same,AC50,[2],23.7 µM (active)
COc1ccccc1NS(=O)(=O)c1cc(NC(=O)c2sccc2C)ccc1N1CCCC1,IC50,[3],0.163 µM (active)
same,IC50,[4],25.9 µM (inactive)
same,IC50,[5],2.73 µM (active)
same,IC50,[6],0.665 µM (active)
Cc1ccc(N2C(=O)/C(=C\NN3CCCCC3c3cccnc3)C(=O)NC2=S)cc1 (configuration not stated),IC50,[7],> 100 µM (inactive)
same,IC50,Prothrombin,71.3 µM (active)
same,IC50,[8],31.7 µM (active)
O=c1c2ccccc2sc2ccc(NCCCN3CCOCC3)cc12,EC50,[9],7.98 µM (active)
same,CC50,Vero,> 25 µM (active)
same,AC50,[2],31.2 µM (active)
O=C(CCC(=O)N1CCc2ccccc2C1)N1CCN(S(=O)(=O)c2ccccc2)CC1,IC50,[10],22.2 µM (active)
same,IC50,Caspase-3,50 µM (active)
same,IC50,[11],12.9 µM (active)
Cc1ccc(C)c(-n2cc(CNCCc3cnccn3)c(-c3ccccc3)n2)c1,EC50,[12],0.267 µM (active)
same,EC50,[13],> 92.5 µM (inactive)
same,EC50,[14],> 92.5 µM (inactive)
same,EC50,Mu-type opioid receptor,> 92.5 µM (inactive)
CCn1c(SCC(=O)c2c[nH]c3ccccc23)nnc1-c1cccs1,IC50,[7],> 100 µM (inactive)
same,IC50,Prothrombin,60.5 µM (active)
same,IC50,[8],24.3 µM (active)
